Earlier results on 1 molecule are cited in patent US10968484B2, “Methods of identifying responses to map kinase inhibition therapy” (The Broad Institute, Inc., priority 2013, dated 2021).

As usually defined, the IC50 is the concentration that gives 50% inhibition.

Read-outs that look alike come from different tables or passages of the source. Some results are limits rather than exact numbers.

This series relates to BRAF_V600-mutant melanomas (cell lines). The note with it: read-out: PLX4720 IC50.

With `CCCS(=O)(=O)Nc1ccc(F)c(C(=O)c2c[nH]c3ncc(Cl)cc23)c1F` [PLX4720], the concentration for half-maximal inhibition (IC50) is, setting by setting: (resistance class of BRAF_V600-mutant melanoma cell lines) not below 8 µM; (sensitive class of BRAF_V600-mutant melanoma cell lines) less than 1.6 µM.
